Data set [1] has as its system loperamide-induced mouse model of constipation. Kind of data set: Loperamide-induced mouse model of constipation.
The conditions of data set [2]: mouse, in vivo, topical or ocular.
The nature of data set [3]: Ocular toxicity after chronic topical dosing (slit-lamp, lissamine green). The class given is in vivo. The note with it: chronically treated mice. The method, then:
(§1) Lissamine green staining. To assess corneal epithelial disruption, 5 μL of lissamine green (LG) dye (1%) was applied to the ocular surface of isofluorane-anesthetized mice. Photographs of the eye were taken using a Nikon Digital camera adapted to an Olympus Zoom Stereo Microscope (Olympus, Center Valley, Pa., USA). Each corneal quadrant was scored on a 3-point scale by one blinded, trained observer, with the extent of staining in each quadrant classified as: 0, no staining; 1, sporadic (involving <25% of the total surface) staining; grade 2, diffuse punctate staining (25-75%); and grade 3, coalesced punctate staining (>75%). The total grade is reported as the sum of scores from all four quadrants, ranging from 0 to 12.

A further data set concerns the target T1, human wild-type CFTR (Homo sapiens, UniProt P13569).
T1 construct: expressed in transfected cells
Kind of data set: Short-circuit current in FRT cells expressing wild-type human CFTR. The note with it: for CFTR activation (in words): short-circuit current. It counts as cell-based. The method, then: Short-circuit current measurement. Short-circuit current was measured in FRT cells stably expressing wild-type human CFTR cultured on porous filters as described. The basolateral solution contained 130 mM NaCl, 2.7 mM KCl, 1.5 mM KH2PO4, 1 mM CaCl2, 0.5 mM MgCl2, 10 mM glucose, and 10 mM Na-HEPES (pH 7.3, 37° C.). In the apical solution 65 mM NaCl was replaced by Na gluconate, and CaCl2 was increased to 2 mM, and the basolateral membrane was permeabilized with 250 μg/ml amphotericin B. Short-circuit current was measured in freshly harvested adult mouse colon at 37° C. using symmetrical Krebs-bicarbonate buffer.
Short-circuit current. Fischer rat thyroid (FRT) cells stably expressing wild-type human CFTR were cultured on Snapwell inserts (Corning Costar, Corning N.Y., USA) for short-circuit current (Isc) measurements. After 6-9 days in culture, when the transepithelial resistance was >1000 Ω/cm^2, the inserts were mounted in an Ussing chamber system (World Precision Instruments, Sarasota, Fla., USA). The basolateral solution contained 130 mM NaCl, 2.7 mM KCl, 1.5 mM KH2PO4, 1 mM CaCl2, 0.5 mM MgCl2, 10 mM glucose, and 10 mM Na-HEPES (pH 7.3). In the apical bathing solution, 65 mM NaCl was replaced by Na gluconate, and CaCl2 was increased to 2 mM. Both solutions were bubbled with air and maintained at 37° C. The basolateral membrane was permeabilized with 250 μg/ml amphotericin B (26, 27). Hemichambers were connected to a DVC-1000 voltage clamp via Ag/AgCl electrodes and 3 M KCl agar bridges for Isc recording.

The test system of data set [4] is mouse model of aqueous-deficient dry eye produced by lacrimal gland excision. Kind of data set: Lacrimal gland excision (LGE) mouse model of dry eye. It counts as in vivo. The note with it: 0.1 nmol topically three times daily. The method, then:
Tear secretion. To measure unstimulated tear production, phenol red threads (Zone-Quick, Oasis Medical, Glendora, Calif., USA) were placed for 10 s in the lateral canthi of isofluorane-anesthetized mice using jewelers' forceps. Tear volume was measured as the length of thread wetting, as visualized under a dissecting microscope. Serial measurements were used to evaluate compound pharmacodynamics after application of 2-μL drops of compound formulations (50-100 μM compound in PBS containing 0.5% polysorbate and 0.5% DMSO) comparing to vehicle.
as §1
Mouse model of dry eye produced by lacrimal gland excision. […]

Another data set deals with ocular surface. Kind of data set: Ocular surface potential difference measurements. The class given is in vivo, mouse. The note with it: wild-type mice, 1-10 μM. The method, then: Ocular surface potential difference measurements. Open-circuit transepithelial PD were measured continuously in anesthetized mice in response to serial perfusions of different solutions over the ocular surface, as described (21). Mice were anesthetized with Avertin (2,2,2-tribromoethanol, 125 mg/kg intraperitoneal, Sigma-Aldrich, St. Louis, Mo., USA), and core temperature was maintained at 37° C. using a heating pad. Eyes were oriented with the cornea and conjunctiva facing upward and exposed by retracting the eyelid with cross-action forceps. Solutions were isosmolar (320±10 mOsM; compositions provided in ref. 21) and contained 10μ[…] □ indomethacin to prevent CFTR activation by prostaglandins. The ocular surface was perfused at 6 mL/min through plastic tubing using a multireservoir gravity pinch-valve system (ALA Scientific, Westbury, N.Y., USA) and variable-flow peristaltic pump (medium flow model; Fisher Scientific, Fair Lawn, N.J., USA). A probe catheter was fixed 1 mm above the cornea using a micropositioner and a suction cannula was positioned 3 mm from the orbit. The measuring electrode was in contact to the perfusion catheter and connected to a high-impedance voltmeter (IsoMilivolt Meter; WPI). The reference electrode was grounded via a winged 21-gauge needle filled with isosmolar saline, and inserted subcutaneously in the abdomen. Measuring and reference electrodes consisted of Ag/AgCl with 3 M KCl agar bridges.
Ocular surface potential difference measurements. Open-circuit transepithelial PD were measured continuously in anesthetized mice in response to serial perfusions of different solutions over the ocular surface, as described (21). Mice were anesthetized with Avertin (2,2,2-tribromoethanol, 125 mg/kg intraperitoneal, Sigma-Aldrich, St. Louis, Mo., USA), and core temperature was maintained at 37° C. using a heating pad. Eyes were oriented with the cornea and conjunctiva facing upward and exposed by retracting the eyelid with cross-action forceps. […]

The conditions of data set [5]: mouse, in vivo.
Data set [6] in a line: Tear film pharmacokinetics by LC/MS. The note with it: from quantity recovered vs EC50.
The test system of a further data set is tear secretion. As to the kind of experiment: Tear secretion (phenol red thread). The class given is in vivo, mouse. The note with it: for increase of tear fluid secretion: single topical dose, for (at least) four hours.
The conditions of data set [7]: cited from earlier work.
For data set [8] the following is noted: juvenile rats; cited from earlier work.

The source of these data is patent publication US11192869B2, “CFTR regulators and methods of use thereof” (THE REGENTS OF THE UNIVERSITY OF CALIFORNIA, priority 2015, dated 2021).

“Also recorded” adds a separate entry of the source. Where two headings read alike, the source gives them in different places. Where a SMILES comes first, the peptide text is derived from it. Bridges are numbered along the chain shown (N, C = ends).

T1 sequence (P13569 whole entry): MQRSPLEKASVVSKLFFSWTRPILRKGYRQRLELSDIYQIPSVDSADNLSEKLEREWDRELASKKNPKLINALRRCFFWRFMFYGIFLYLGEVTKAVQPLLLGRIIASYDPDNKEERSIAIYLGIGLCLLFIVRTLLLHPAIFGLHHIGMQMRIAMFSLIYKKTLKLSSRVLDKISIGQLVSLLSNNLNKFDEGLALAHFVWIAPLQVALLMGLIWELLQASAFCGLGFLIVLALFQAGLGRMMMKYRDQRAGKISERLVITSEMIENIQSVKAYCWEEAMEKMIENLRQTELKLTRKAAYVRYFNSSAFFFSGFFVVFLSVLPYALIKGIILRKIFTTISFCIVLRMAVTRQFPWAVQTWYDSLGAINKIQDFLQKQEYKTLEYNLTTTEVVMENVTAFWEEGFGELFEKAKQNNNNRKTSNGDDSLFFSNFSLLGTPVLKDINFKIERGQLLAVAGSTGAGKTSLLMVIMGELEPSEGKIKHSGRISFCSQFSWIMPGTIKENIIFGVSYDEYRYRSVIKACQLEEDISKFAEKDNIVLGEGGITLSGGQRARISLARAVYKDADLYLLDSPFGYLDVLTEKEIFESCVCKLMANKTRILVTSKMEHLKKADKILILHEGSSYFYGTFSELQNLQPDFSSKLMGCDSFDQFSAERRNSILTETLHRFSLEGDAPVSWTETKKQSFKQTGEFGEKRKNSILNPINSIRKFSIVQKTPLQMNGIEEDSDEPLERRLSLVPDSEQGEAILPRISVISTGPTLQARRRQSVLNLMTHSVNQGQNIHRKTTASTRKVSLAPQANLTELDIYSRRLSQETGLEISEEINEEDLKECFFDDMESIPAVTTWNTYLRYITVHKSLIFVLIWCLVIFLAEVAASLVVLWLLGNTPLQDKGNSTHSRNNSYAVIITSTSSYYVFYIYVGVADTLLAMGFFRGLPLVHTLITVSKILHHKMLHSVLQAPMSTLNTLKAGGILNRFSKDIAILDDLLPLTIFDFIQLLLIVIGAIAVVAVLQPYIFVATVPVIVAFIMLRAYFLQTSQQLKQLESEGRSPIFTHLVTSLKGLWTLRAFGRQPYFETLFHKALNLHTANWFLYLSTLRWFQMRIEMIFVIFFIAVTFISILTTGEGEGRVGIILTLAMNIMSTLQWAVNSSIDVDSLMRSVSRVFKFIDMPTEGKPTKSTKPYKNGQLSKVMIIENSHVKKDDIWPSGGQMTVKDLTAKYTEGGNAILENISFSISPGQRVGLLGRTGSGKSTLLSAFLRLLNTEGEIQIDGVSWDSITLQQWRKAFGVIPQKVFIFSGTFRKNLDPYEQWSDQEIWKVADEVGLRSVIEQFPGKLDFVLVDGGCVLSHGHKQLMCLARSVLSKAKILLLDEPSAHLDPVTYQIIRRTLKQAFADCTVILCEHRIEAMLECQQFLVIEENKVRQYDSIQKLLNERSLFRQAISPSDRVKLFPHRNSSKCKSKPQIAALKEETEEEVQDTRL

With `Cn1c(=O)c(-c2cc([N+](=O)[O-])ccc2N)nc2ccccc21` [inactive chemical analog of CFTRact-J027, reference compound], in [1] (loperamide model, wildtype mice), the “efficacy of inactive analog in wildtype mice” value is “nor was an inactive chemical analog of CFTRact-J027 effective”.

Regarding `CCN(CC)c1nc(Nc2ccccc2)nc(OC(C(F)(F)F)C(F)(F)F)n1` [CFTRact-K089], the “tear film bioavailability (in words)” value in data set [2] is recorded as “sustained tear film bioavailability”. Moreover, in data set [3], the “LG staining, corneal or conjunctival epithelial disruption” value is listed as “no corneal or conjunctival epithelial disruption” and the “ocular toxicity by slit-lamp evaluation” value is reported as “no signs of ocular toxicity”. For the same compound, the CFTR activation at human wild-type CFTR (Isc) is reported as roughly 50 % Vmax. In addition, the “CFTR activation (in words)” value at human wild-type CFTR (wild-type CFTR) was “fully activated CFTR”. Further, in data set [4], the “corneal / ocular surface epithelial disruption after LGE” value is “prevents corneal epithelial disruption; also recorded: fully prevented; also recorded: prevented ocular surface epithelial disruption” and the “tear secretion / tear volume after LGE” value is reported as “restored tear secretion”. Besides, the “change in ocular surface PD (in words)” value in the data set with ocular surface is “large hyperpolarizations”. The “systemic absorption (in words)” value in data set [5] was “without detectable systemic absorption”. For the same compound, the “duration of therapeutic levels in tear fluid” value in data set [6] was “predicts therapeutic levels for at least six hours”. Also, the “tear fluid secretion in CF mice” value in the data set on tear secretion (CF mice) is “no effect”. Also, the “increase of tear fluid secretion” value in the data set with tear secretion is given as “doubled; also recorded: approximately two-fold”.

In the case of `CCCCC(F)(F)[C@@]1(O)CC[C@H]2[C@@H](CC(=O)[C@@H]2CCCCCCC(=O)O)O1` [lubiprostone], in data set [7] (IBS-C patients), the “patients in whom effective” value was roughly 13%.

`CC(C)(C)c1cc(C(C)(C)C)c(NC(=O)c2c[nH]c3ccccc3c2=O)cc1O` [VX-770, reference compound]: at human wild-type CFTR (wild-type CFTR), the “CFTR activation (in words)” value is “relatively little activity; also recorded: relatively weak activity”. For the same compound, the Emax on human wild-type CFTR (wild-type CFTR, read-out: maximal activation of CFTR) was 15%. In addition, the “change in ocular surface PD (in words)” value in the data set on ocular surface is “minimal changes”. In data set [8], the “adverse finding on chronic application” value is given as “cataracts”. For the same compound, in the data set with tear secretion, the “increase of tear fluid secretion” value is given as “little tear secretion”.

cholera toxin [reference compound]: in the data set on tear secretion (mouse, in vivo), the “persistence of tear secretion effect” value is “transient and undetectable after 2 hours”.

With `C[C@@H]1NC(=O)[C@@H]2CCCN2C(=O)[C@H](CC(N)=O)NC(=O)[C@@H]2CSSC[C@H](N)C(=O)N[C@H]3CSSC[C@H](NC1=O)C(=O)N[C@@H]([C@@H](C)O)C(=O)NCC(=O)N[C@H](C(=O)N[C@@H](Cc1ccc(O)cc1)C(=O)O)CSSC[C@H](NC(=O)[C@H](Cc1ccc(O)cc1)NC(=O)[C@H](CCC(=O)O)NC3=O)C(=O)N2` [linaclotide, reference compound] (H-CCEYCCNPACTGCY-OH; disulfide 1-6, 2-10, 5-13), the “patients in whom effective” value in data set [7] (chronic constipation patients) is roughly 20%. The “stool output, % of the maximal CFTRact-J027 response” value in data set [1] (oral 0.5 mg/kg, loperamide-treated mice) is on record as 35%.

With `CC(C)Cn1c(=O)n(C)c(=O)c2[nH]cnc21` [IBMX, 3-isobutyl-1-methylxanthine, reference compound], the “persistence of tear secretion effect” value in the data set with tear secretion (after 2 hours) is “transient and undetectable after 2 hours”.
